pIC50: −log10 of the molar value.
Legend:
His-AKT (Full Length) = biological target: T1, His-AKT (Full Length) (Homo sapiens, UniProt P31749); experiment: AKT enzyme assay; assay type: biochemical; settings: enzyme inhibition; 160 uM ATP, 90 min at 25° C., Caliper mobility shift
T1 construct: 0.1 ng/μl His-AKT (Full Length); His; purchased Invitrogen P2999
Method: (§1) The IC50 values reported for the compounds in the Experimental section were derived from the following protocol for the p70S6K and AKT enzyme assays.
A TTP Mosquito liquid handling instrument was used to place 125 nl of the appropriate concentration of inhibitor in 100% DMSO (for a dose response curve calculation) into each well of a 384-well plate. To this reaction components were added to a final volume of 12.5 μl: • 0.1 ng/μl His-AKT (Full Length), (Invitrogen, Part # P2999, Lot # 641228C). • 160 uM ATP (Fluke, 02055) • 1 mM DTT (Sigma, D0632) • 1 mM MgCl2 (Sigma, M1028) • 1 μM substrate peptide (sequence FITC-AHA-GRPRTSSFAEG-NH2), synthesized by Tufts Peptide Synthesis service. • 100 mM HEPES pH 7.5 (Calbiochem, 391338) • 0.015% Brij-35 (Sigma, B4184)
The reaction was incubated for 90 min at 25° C., and then stopped by the addition of 70 μl of Stop buffer (100 mM HEPES pH 7.5, 0.015% Brij-35, 10 mM EDTA (Sigma, E7889)).
The plate was read on a Caliper LC 3000 in an Off-Chip mobility shift assay format, using the following parameters for a 12-sipper chip: screening pressure −2.3 psi, upstream voltage −500, and downstream voltage −3000. These conditions caused unphosphorylated substrate and phosphorylated product peptide to resolve as separate peaks allowing direct measurement of percentage of conversion of substrate to product. The percent conversion was plotted against concentration of inhibitor to produce a sigmoidal dose response curve, from which an IC50 was calculated.

[1] = biological target: T2, P70S6K (T412E mutant, Millipore) (Homo sapiens, UniProt P23443, T412E); experiment: P70S6K enzyme assay; assay type: biochemical; settings: enzyme inhibition; 24 μM ATP, 90 min at 25° C., Caliper mobility shift
T2 construct: purchased Millipore
T2 sequence (P23443 whole entry T412E): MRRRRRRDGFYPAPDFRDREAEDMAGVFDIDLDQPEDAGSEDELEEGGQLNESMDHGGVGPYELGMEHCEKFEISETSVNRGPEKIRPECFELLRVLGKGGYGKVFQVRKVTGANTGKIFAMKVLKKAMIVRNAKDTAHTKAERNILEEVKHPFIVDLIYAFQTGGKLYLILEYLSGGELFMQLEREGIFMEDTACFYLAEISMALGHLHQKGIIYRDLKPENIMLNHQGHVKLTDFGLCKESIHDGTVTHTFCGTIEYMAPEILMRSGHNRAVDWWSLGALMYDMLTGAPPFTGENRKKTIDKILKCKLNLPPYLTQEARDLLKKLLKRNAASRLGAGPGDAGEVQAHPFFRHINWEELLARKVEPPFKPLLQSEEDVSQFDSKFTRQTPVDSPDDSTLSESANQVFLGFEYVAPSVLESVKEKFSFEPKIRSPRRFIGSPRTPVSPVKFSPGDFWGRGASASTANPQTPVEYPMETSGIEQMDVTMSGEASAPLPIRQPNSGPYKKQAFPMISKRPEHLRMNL
Method: as §1
P70S6K inhibitor compounds were diluted and plated in 96 well plates. A reaction mixture including the following components was then added to the compound plate to initiate the enzyme reaction; P70S6K (3 nM, T412E mutant, Millipore) was mixed with 24 μM ATP in an assay buffer containing 100 mM Hepes (pH 7.5), 5 mM MgCl2, 1 mM DTT, 0.015% Brij and 1 μM of the substrate peptide FITC-AHA-AKRRRLSSLRA-OH (derived from the S6 ribosomal protein sequence, FITC=fluorescein isothiocyanate, AHA=6-aminohexanoic acid). The reaction was incubated for 90 min at 25° C., before the addition of 10 mM EDTA to stop the reaction. The proportion of substrate and product (phosphorylated) peptide was analysed on a Caliper Life Sciences Lab Chip 3000, using a pressure of −1.4 psi, and upstream and downstream voltages of −3000 and −700 respectively. Product peaks were resolved before substrate peaks on the resulting chromatograms.

T1 sequence (P31749 whole entry): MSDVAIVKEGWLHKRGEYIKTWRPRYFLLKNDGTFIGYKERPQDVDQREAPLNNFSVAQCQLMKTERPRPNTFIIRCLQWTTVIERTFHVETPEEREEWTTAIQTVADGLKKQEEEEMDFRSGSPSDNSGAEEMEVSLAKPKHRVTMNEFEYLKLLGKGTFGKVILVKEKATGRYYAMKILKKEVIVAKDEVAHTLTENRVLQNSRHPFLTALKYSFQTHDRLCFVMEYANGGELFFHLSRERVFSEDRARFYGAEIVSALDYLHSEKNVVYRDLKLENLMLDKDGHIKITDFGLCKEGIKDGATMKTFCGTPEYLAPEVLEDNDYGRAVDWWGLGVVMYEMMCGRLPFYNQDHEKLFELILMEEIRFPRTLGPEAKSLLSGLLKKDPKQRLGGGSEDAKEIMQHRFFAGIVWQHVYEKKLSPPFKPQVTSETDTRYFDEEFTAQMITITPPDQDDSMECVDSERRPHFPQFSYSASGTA

| SMILES | pIC50 (His-AKT (Full Length)) | pIC50 [1] |
| --- | --- | --- |
| FC(F)(F)c1cc(-c2cn(CCN3CCC3)c(C3CCN(c4ncnc5c4CCC5)CC3)n2)ccn1 [Compound A23, 4-{4-[1-(2-Azetidin-1-yl-ethyl)-4-(2-trifluoromethyl-pyridin-4-yl)-1H-imidazol-2-yl]-piperidin-1-yl}-6,7-dihydro-5H-cyclopentapyrimidine] | 7.00 to 7.59 | > 7.60 |
| Cc1cc(-c2cn(CCN(C)C)c(C3CCN(c4ncnc5c4CCN5)CC3)n2)ccc1F [Compound A24, {2-[2-[1-(6,7-Dihydro-5H-pyrrolo[2,3-d]pyrimidin-4-yl)-piperidin-4-yl]-4-(4-fluoro-3-methyl-phenyl)-imidazol-1-yl]-ethyl}-dimethylamine] | > 7.60 | > 7.60 |
| COc1cc(-c2cn(CCN(C)C)c(C3CCN(c4ncnc5c4CCN5)CC3)n2)ccc1F [Compound A25, {2-[2-[1-(6,7-Dihydro-5H-pyrrolo[2,3-d]pyrimidin-4-yl)-piperidin-4-yl]-4-(4-fluoro-3-methoxy-phenyl)-imidazol-1-yl]-ethyl}-dimethylamine] | > 7.60 | > 7.60 |
| CN(C)CCn1cc(-c2ccc(F)c(Cl)c2)nc1C1CCN(c2ncnc3c2CCN3)CC1 [Compound A26, (2-{4-(3-Chloro-4-fluoro-phenyl)-2-[1-(6,7-dihydro-5H-pyrrolo[2,3-d]pyrimidin-4-yl)-piperidin-4-yl]-imidazol-1-yl}-ethyl)-dimethylamine] | > 7.60 | > 7.60 |
| CN(C)CCn1cc(-c2ccnc(C(F)(F)F)c2)nc1C1CCN(c2ncnc3c2CCN3)CC1 [Compound A27, {2-[2-[1-(6,7-Dihydro-5H-pyrrolo[2,3-d]pyrimidin-4-yl)-piperidin-4-yl]-4-(2-trifluoromethyl-pyridin-4-yl)-imidazol-1-yl]-ethyl}-dimethylamine] | 7.00 to 7.59 | > 7.60 |
| Fc1ccc(-c2cn(CCN3CCC3)c(C3CCN(c4ncnc5c4CCN5)CC3)n2)cc1C(F)(F)F [Compound A28, 4-{4-[1-(2-Azetidin-1-yl-ethyl)-4-(4-fluoro-3-trifluoromethyl-phenyl)-1H-imidazol-2-yl]-piperidin-1-yl}-6,7-dihydro-5H-pyrrolo[2,3-d]pyrimidine] | > 7.60 | > 7.60 |
| Cc1cc(-c2cn(CCN3CCC3)c(C3CCN(c4ncnc5c4CCN5)CC3)n2)ccc1F [Compound A29, 4-{4-[1-(2-Azetidin-1-yl-ethyl)-4-(4-fluoro-3-methyl-phenyl)-1H-imidazol-2-yl]-piperidin-1-yl}-6,7-dihydro-5H-pyrrolo[2,3-d]pyrimidine] | > 7.60 | > 7.60 |
| FC(F)(F)c1cc(-c2cn(CCN3CCC3)c(C3CCN(c4ncnc5c4CCN5)CC3)n2)ccn1 [Compound A30, 4-{4-[1-(2-Azetidin-1-yl-ethyl)-4-(2-trifluoromethyl-pyridin-4-yl)-1H-imidazol-2-yl]-piperidin-1-yl}-6,7-dihydro-5H-pyrrolo[2,3-d]pyrimidine] | > 7.60 | > 7.60 |
| Fc1ccc(-c2cn(CCN3CCC3)c(C3CCN(c4ncnc5c4CCN5)CC3)n2)cc1Cl [Compound A31, 4-{4-[1-(2-Azetidin-1-yl-ethyl)-4-(3-chloro-4-fluoro-phenyl)-1H-imidazol-2-yl]-piperidin-1-yl}-6,7-dihydro-5H-pyrrolo[2,3-d]pyrimidine] | > 7.60 | > 7.60 |
| CN(C)CCn1cc(-c2ccc(F)c(C(F)(F)F)c2)nc1C1CCN(c2ncnc3c2CCCN3)CC1 [Compound A32, (2-{4-(4-Fluoro-3-trifluoromethyl-phenyl)-2-[1-(5,6,7,8-tetrahydro-pyrido[2,3-d]pyrimidin-4-yl)-piperidin-4-yl]-imidazol-1-yl}-ethyl)-dimethylamine] | > 7.60 | > 7.60 |
| Cc1cc(-c2cn(CCN(C)C)c(C3CCN(c4ncnc5c4CCCN5)CC3)n2)ccc1F [Compound A33, (2-{4-(4-Fluoro-3-methyl-phenyl)-2-[1-(5,6,7,8-tetrahydro-pyrido[2,3-d]pyrimidin-4-yl)-piperidin-4-yl]-imidazol-1-yl}-ethyl)-dimethylamine] | > 7.60 | > 7.60 |
| COc1cc(-c2cn(CCN(C)C)c(C3CCN(c4ncnc5c4CCCN5)CC3)n2)ccc1F [Compound A34, (2-{4-(4-Fluoro-3-methoxy-phenyl)-2-[1-(5,6,7,8-tetrahydro-pyrido[2,3-d]pyrimidin-4-yl)-piperidin-4-yl]-imidazol-1-yl}-ethyl)-dimethylamine] | > 7.60 | > 7.60 |
| CN(C)CCn1cc(-c2ccc(F)c(Cl)c2)nc1C1CCN(c2ncnc3c2CCCN3)CC1 [Compound A35, (2-{4-(3-Chloro-4-fluoro-phenyl)-2-[1-(5,6,7,8-tetrahydro-pyrido[2,3-d]pyrimidin-4-yl)-piperidin-4-yl]-imidazol-1-yl}-ethyl)-dimethylamine] | > 7.60 | > 7.60 |
| CN(C)CCn1cc(-c2ccnc(C(F)(F)F)c2)nc1C1CCN(c2ncnc3c2CCCN3)CC1 [Compound A36, Dimethyl-{2-[2-[1-(5,6,7,8-tetrahydro-pyrido[2,3-d]pyrimidin-4-yl)-piperidin-4-yl]-4-(2-trifluoromethyl-pyridin-4-yl)-imidazol-1-yl]-ethyl}-amine] | > 7.60 | > 7.60 |
| Fc1ccc(-c2cn(CCN3CCC3)c(C3CCN(c4ncnc5c4CCCN5)CC3)n2)cc1C(F)(F)F [Compound A37, 4-{4-[1-(2-Azetidin-1-yl-ethyl)-4-(4-fluoro-3-trifluoromethyl-phenyl)-1H-imidazol-2-yl]-piperidin-1-yl}-5,6,7,8-tetrahydro-pyrido[2,3-d]pyrimidine] | > 7.60 | > 7.60 |
| Fc1ccc(-c2cn(CCN3CCC3)c(C3CCN(c4ncnc5c4CCCN5)CC3)n2)cc1Cl [Compound A38, 4-{4-[1-(2-Azetidin-1-yl-ethyl)-4-(3-chloro-4-fluoro-phenyl)-1H-imidazol-2-yl]-piperidin-1-yl}-5,6,7,8-tetrahydro-pyrido[2,3-d]pyrimidine] | > 7.60 | > 7.60 |
| O=C1CNc2ncnc(N3CCC(c4nc(-c5ccc(F)c(C(F)(F)F)c5)cn4CCN4CCCC4)CC3)c2N1 [Compound A39, 4-{4-[4-(4-fluoro-3-trifluoromethyl-phenyl)-1-(2-pyrrolidin-1-yl-ethyl)-1H-imidazol-2-yl]-piperidin-1-yl}-7,8-dihydro-5H-pteridin-6-one] | > 7.60 | > 7.60 |
| O=C1CNc2ncnc(N3CCC(c4nc(-c5ccc(F)c(C(F)(F)F)c5)cn4CCN4CCC4)CC3)c2N1 [Compound A40, 4-{4-[4-(4-fluoro-3-trifluoromethyl-phenyl)-1-(2-azetidin-1-yl-ethyl)-1H-imidazol-2-yl]-piperidin-1-yl}-7,8-dihydro-5H-pteridin-6-one] | > 7.60 | > 7.60 |
| CN(C)CCn1cc(-c2ccc(F)c(C(F)(F)F)c2)nc1C1CCN(c2ncnc3c2NC(=O)CN3)CC1 [Compound A41, 4-{4-[4-(4-fluoro-3-trifluoromethyl-phenyl)-1-(2-dimethyamine-1-yl-ethyl)-1H-imidazol-2-yl]-piperidin-1-yl}-7,8-dihydro-5H-pteridin-6-one] | > 7.60 | > 7.60 |
| Cc1cc(-c2cn(CCN3CCC3)c(C3CCN(c4ncnc5c4NC(=O)CN5)CC3)n2)ccc1F [Compound A42, 4-{4-[4-(4-fluoro-3-methyl-phenyl)-1-(2-azetidin-1-yl-ethyl)-1H-imidazol-2-yl]-piperidin-1-yl}-7,8-dihydro-5H-pteridin-6-one] | 7.00 to 7.59 | > 7.60 |
| O=C1CNc2ncnc(N3CCC(c4nc(-c5ccnc(C(F)(F)F)c5)cn4CCN4CCC4)CC3)c2N1 [Compound A43, 4-{4-[1-(2-azetidin-1-yl-ethyl)-4-(2-trifluoromethyl-pyridin-4-yl)-1H-imidazol-2-yl]-piperidin-1-yl}-7,8-dihydro-5H-pteridin-6-one] | 7.00 to 7.59 | > 7.60 |
| O=C1CNc2ncnc(N3CCC(c4nc(-c5ccnc(C6CC6)c5)cn4CCN4CCC4)CC3)c2N1 [Compound A44, 4-{4-[1-(2-azetidin-1-yl-ethyl)-4-(2-cyclopropyl-pyridin-4-yl)-1H-imidazol-2-yl]-piperidin-1-yl}-7,8-dihydro-5H-pteridin-6-one] | 6.30 to 7.00 | > 7.60 |

From patent US9315517B2, “Imidazol-piperidinyl derivatives as modulators of kinase activity” (Merck Patent GmbH, priority 2012, dated 2016)
